Measured values published in patent US9267129B2, “Compositions and methods for conferring herbicide resistance” (BEN-GURION UNIVERSITY OF THE NEGEV RESEARCH AND DEVELOPMENT …, priority 2011, dated 2016).

Tested on: E. coli BUM1 transformed with the wild type PiAHAS genes
Test: Growth on M9 plates with SMM, bacteria transformed with wild type PiAHAS genes
Format: cell-based, Escherichia coli
Details: 50 μM SMM, 48 hrs, 37° C.
Experimental: This strain also requires proline and thiamin, regardless of AHAS expression. Transformation of BUM1 cells was achieved using a standard heat shock protocol. BUM1 cells were grown in LB or in M9 minimal medium (7 mg/ml Na2HPO4; 3 mg/ml KH2PO4; 0.5 mg/ml NaCl; 1 mg/ml NH4Cl; 0.12 mg/ml MgSO4; 0.35 mg/ml thiamin HCl; 2 mg/ml glucose) supplemented with 200 μg/ml proline. Where appropriate, the M9 medium was supplemented with the BCAAs valine, leucine, and isoleucine (150 μg/ml of each) or with 50 μM SMM. BUM1 transformants were propagated and kept on LB medium supplemented with 100 μg/ml Ampicillin. For functional expression assays, the cells were washed and plated on M9 agar plates and incubated for 48 hrs at 37° C. […]
The expression vector pEp-empty, an empty plasmid that retains the native ilvEp promoter and ATG start codon, was created by amplification of pAH29 plasmid with the pAH29-empty primer set, and included BamHI and SalI restriction sites for future fusion with the algal genes. Three forms of PiAHAS genes were used for this experiment: PiAHAS full open reading frame (ORF), truncated PiAHAS without the estimated chloroplast targeting peptide (from Serine91), and PimAHAS containing the point mutation (W605S). […] The plates were incubated for 48 hrs (FIG. 3) and bacterial growth was determined. […]

Q: Which “bacterial growth in presence of SMM” value does the source give for `COC(=O)c1ccccc1S(=O)(=O)NC(=O)Nc1nc(C)cc(C)n1` [SMM, sulfometuron methyl] here?
A: Its value is “totally inhibited”.
